Results published in publication PMC6547681 (Nature Communications, 2019).

How the values were obtained:
[1] = test system: KMS-12-PE cells expressing BCL-2 G101V; assay: CellTiter-Glo cell viability, KMS-12-PE cells overexpressing BCL-2 G101V; settings: read-out: S55746 LC50, KMS-12-PE overexpressing BCL-2 G101V, 24 h, mean ± SD, n = 3
Procedure: KMS-12-PE (sourced from DSMZ in 2013; Cat#ACC606) were cultured with HTRPMI with 10% fetal bovine serum. Early passages (P5-P7) after purchase were cryopreserved and thawed for the experiments. Cells beyond passage 15 were not used. Monthly tests for mycoplasma were consistently negative (MycoAlert mycoplasma detection kit; Lonza, GA, USA).
Cell viability 24 h after treatment was then determined using the CellTiter-Glo assay (Promega, Cat#G9241). […] Experiments were performed on three separate occasions; the data is shown as the means ± SD of those three independent experiments.

[2] = molecular target: BCL-2 G101V/E152A double mutant (Homo sapiens, UniProt P10415, E152A/G101V); assay: Steady-state competition SPR against immobilised BIMBH3 peptide, BCL-2 G101V/E152A double mutant; format: binding
Chain of BCL-2 G101V/E152A double mutant (P10415 with tags, fused parts or gaps G101V/E152A): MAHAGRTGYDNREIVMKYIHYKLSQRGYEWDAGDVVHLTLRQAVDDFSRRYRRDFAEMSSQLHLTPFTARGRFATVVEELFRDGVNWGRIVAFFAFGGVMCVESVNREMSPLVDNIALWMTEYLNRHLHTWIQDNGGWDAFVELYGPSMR
Procedure: SPR experiments were performed as previously described. […] The lowest concentrations used in direct binding experiments were 1 nM for BIAcore 4000 and 0.1 nM for BIAcore S200 instruments, concentrations below these were below the sensitivity thresholds for the instruments. […] Direct binding experiments were fitted to a 1:1 binding site kinetic model, fitting on and off rates, in BIAevaluation software. For competition experiments steady-state responses were determined in BIAevaluation software according to the software defaults in affinity evaluation mode averaging responses for 5 sec. […] All affinity measurements were performed in at least two independent experiments using independent protein preparations.

Q: Which results are given for O=C(c1cc(-c2cc3c(cc2C(=O)N2Cc4ccccc4C[C@H]2CN2CCOCC2)OCO3)n2c1CCCC2)N(c1ccccc1)c1ccc(O)cc1 [S55746]?
A: CC50 [1]: 2700 ± 430 nM; Raw data values in Figure 3h (SPR response) ([2]; S55746 concentration 20, BCL-2 concentration 10 nM, independent experiment 1): 30.4614; Raw data values in Figure 3h (SPR response) ([2]; S55746 concentration 20, BCL-2 concentration 10 nM, independent experiment 2): 6.021; Raw data values in Figure 3h (SPR response) ([2]; S55746 concentration 20, BCL-2 concentration 20 nM, independent experiment 1): 65.5037; Raw data values in Figure 3h (SPR response) ([2]; S55746 concentration 20, BCL-2 concentration 20 nM, independent experiment 2): 18.8646; Raw data values in Figure 3h (SPR response) ([2]; S55746 concentration 20, BCL-2 concentration 30 nM, independent experiment 1): 76.9824; Raw data values in Figure 3h (SPR response) ([2]; S55746 concentration 20, BCL-2 concentration 30 nM, independent experiment 2): 27.9038; Raw data values in Figure 3h (SPR response) ([2]; S55746 concentration 20, BCL-2 concentration 40 nM, independent experiment 1): 81.6304; Raw data values in Figure 3h (SPR response) ([2]; S55746 concentration 20, BCL-2 concentration 40 nM, independent experiment 2): 34.3045; Raw data values in Figure 3h (SPR response) ([2]; S55746 concentration 20, BCL-2 concentration 50 nM, independent experiment 1): 84.581; Raw data values in Figure 3h (SPR response) ([2]; S55746 concentration 20, BCL-2 concentration 50 nM, independent experiment 2): 38.4913; Raw data values in Figure 3h (SPR response) ([2]; S55746 concentration 20, BCL-2 concentration 60 nM, independent experiment 1): 86.8988; Raw data values in Figure 3h (SPR response) ([2]; S55746 concentration 20, BCL-2 concentration 60 nM, independent experiment 2): 42.4602; Raw data values in Figure 3h (SPR response) ([2]; S55746 concentration 20, BCL-2 concentration 70 nM, independent experiment 1): 87.9145; Raw data values in Figure 3h (SPR response) ([2]; S55746 concentration 20, BCL-2 concentration 70 nM, independent experiment 2): 45.435; Raw data values in Figure 3h (SPR response) ([2]; S55746 concentration 20, BCL-2 concentration 80 nM, independent experiment 1): 88.9424; Raw data values in Figure 3h (SPR response) ([2]; S55746 concentration 20, BCL-2 concentration 80 nM, independent experiment 2): 47.8619; Raw data values in Figure 3h (SPR response) ([2]; S55746 concentration 20, BCL-2 concentration 100 nM, independent experiment 1): 90.7371; Raw data values in Figure 3h (SPR response) ([2]; S55746 concentration 20, BCL-2 concentration 100 nM, independent experiment 2): 52.9424; Raw data values in Figure 3h (SPR response) ([2]; S55746 concentration 20, BCL-2 concentration 150 nM, independent experiment 1): 92.2147; Raw data values in Figure 3h (SPR response) ([2]; S55746 concentration 20, BCL-2 concentration 150 nM, independent experiment 2): 60.437; Raw data values in Figure 3h (SPR response) ([2]; S55746 concentration 20, BCL-2 concentration 200 nM, independent experiment 1): 94.1481; Raw data values in Figure 3h (SPR response) ([2]; S55746 concentration 20, BCL-2 concentration 200 nM, independent experiment 2): 65.8724; Raw data values in Figure 3h (SPR response) ([2]; S55746 concentration 40, BCL-2 concentration 10 nM, independent experiment 1): 10.773; Raw data values in Figure 3h (SPR response) ([2]; S55746 concentration 40, BCL-2 concentration 10 nM, independent experiment 2): 1.948; Raw data values in Figure 3h (SPR response) ([2]; S55746 concentration 40, BCL-2 concentration 20 nM, independent experiment 1): 28.9257; Raw data values in Figure 3h (SPR response) ([2]; S55746 concentration 40, BCL-2 concentration 20 nM, independent experiment 2): 5.643; Raw data values in Figure 3h (SPR response) ([2]; S55746 concentration 40, BCL-2 concentration 30 nM, independent experiment 1): 52.4298; Raw data values in Figure 3h (SPR response) ([2]; S55746 concentration 40, BCL-2 concentration 30 nM, independent experiment 2): 13.0173; Raw data values in Figure 3h (SPR response) ([2]; S55746 concentration 40, BCL-2 concentration 40 nM, independent experiment 1): 71.0654; Raw data values in Figure 3h (SPR response) ([2]; S55746 concentration 40, BCL-2 concentration 40 nM, independent experiment 2): 23.2512; Raw data values in Figure 3h (SPR response) ([2]; S55746 concentration 40, BCL-2 concentration 50 nM, independent experiment 1): 78.1857; Raw data values in Figure 3h (SPR response) ([2]; S55746 concentration 40, BCL-2 concentration 50 nM, independent experiment 2): 30.4785; Raw data values in Figure 3h (SPR response) ([2]; S55746 concentration 40, BCL-2 concentration 60 nM, independent experiment 1): 82.5478; Raw data values in Figure 3h (SPR response) ([2]; S55746 concentration 40, BCL-2 concentration 60 nM, independent experiment 2): 36.3344; Raw data values in Figure 3h (SPR response) ([2]; S55746 concentration 40, BCL-2 concentration 70 nM, independent experiment 1): 84.8279; Raw data values in Figure 3h (SPR response) ([2]; S55746 concentration 40, BCL-2 concentration 70 nM, independent experiment 2): 40.4837; Raw data values in Figure 3h (SPR response) ([2]; S55746 concentration 40, BCL-2 concentration 80 nM, independent experiment 1): 86.613; Raw data values in Figure 3h (SPR response) ([2]; S55746 concentration 40, BCL-2 concentration 80 nM, independent experiment 2): 44.3565; Raw data values in Figure 3h (SPR response) ([2]; S55746 concentration 40, BCL-2 concentration 100 nM, independent experiment 1): 88.6534; Raw data values in Figure 3h (SPR response) ([2]; S55746 concentration 40, BCL-2 concentration 100 nM, independent experiment 2): 49.9278; Raw data values in Figure 3h (SPR response) ([2]; S55746 concentration 40, BCL-2 concentration 150 nM, independent experiment 1): 91.2516; Raw data values in Figure 3h (SPR response) ([2]; S55746 concentration 40, BCL-2 concentration 150 nM, independent experiment 2): 58.1685; Raw data values in Figure 3h (SPR response) ([2]; S55746 concentration 40, BCL-2 concentration 200 nM, independent experiment 1): 92.8828; Raw data values in Figure 3h (SPR response) ([2]; S55746 concentration 40, BCL-2 concentration 200 nM, independent experiment 2): 64.0843; Raw data values in Figure 3h (SPR response) ([2]; S55746 concentration 60, BCL-2 concentration 10 nM, independent experiment 1): 8.7572; Raw data values in Figure 3h (SPR response) ([2]; S55746 concentration 60, BCL-2 concentration 10 nM, independent experiment 2): 1.402; Raw data values in Figure 3h (SPR response) ([2]; S55746 concentration 60, BCL-2 concentration 20 nM, independent experiment 1): 17.8604; Raw data values in Figure 3h (SPR response) ([2]; S55746 concentration 60, BCL-2 concentration 20 nM, independent experiment 2): 2.802; Raw data values in Figure 3h (SPR response) ([2]; S55746 concentration 60, BCL-2 concentration 30 nM, independent experiment 1): 29.7852; Raw data values in Figure 3h (SPR response) ([2]; S55746 concentration 60, BCL-2 concentration 30 nM, independent experiment 2): 5.592; Raw data values in Figure 3h (SPR response) ([2]; S55746 concentration 60, BCL-2 concentration 40 nM, independent experiment 1): 46.113; Raw data values in Figure 3h (SPR response) ([2]; S55746 concentration 60, BCL-2 concentration 40 nM, independent experiment 2): 9.958; Raw data values in Figure 3h (SPR response) ([2]; S55746 concentration 60, BCL-2 concentration 50 nM, independent experiment 1): 65.5161; Raw data values in Figure 3h (SPR response) ([2]; S55746 concentration 60, BCL-2 concentration 50 nM, independent experiment 2): 18.5156; Raw data values in Figure 3h (SPR response) ([2]; S55746 concentration 60, BCL-2 concentration 60 nM, independent experiment 1): 78.402; Raw data values in Figure 3h (SPR response) ([2]; S55746 concentration 60, BCL-2 concentration 60 nM, independent experiment 2): 29.1548; Raw data values in Figure 3h (SPR response) ([2]; S55746 concentration 60, BCL-2 concentration 70 nM, independent experiment 1): 82.48; Raw data values in Figure 3h (SPR response) ([2]; S55746 concentration 60, BCL-2 concentration 70 nM, independent experiment 2): 34.7085; Raw data values in Figure 3h (SPR response) ([2]; S55746 concentration 60, BCL-2 concentration 80 nM, independent experiment 1): 84.2763; Raw data values in Figure 3h (SPR response) ([2]; S55746 concentration 60, BCL-2 concentration 80 nM, independent experiment 2): 38.0757; Raw data values in Figure 3h (SPR response) ([2]; S55746 concentration 60, BCL-2 concentration 100 nM, independent experiment 1): 87.9314; Raw data values in Figure 3h (SPR response) ([2]; S55746 concentration 60, BCL-2 concentration 100 nM, independent experiment 2): 45.7651; Raw data values in Figure 3h (SPR response) ([2]; S55746 concentration 60, BCL-2 concentration 150 nM, independent experiment 1): 91.7815; Raw data values in Figure 3h (SPR response) ([2]; S55746 concentration 60, BCL-2 concentration 150 nM, independent experiment 2): 56.7196; Raw data values in Figure 3h (SPR response) ([2]; S55746 concentration 60, BCL-2 concentration 200 nM, independent experiment 1): 93.0262; Raw data values in Figure 3h (SPR response) ([2]; S55746 concentration 60, BCL-2 concentration 200 nM, independent experiment 2): 63.1726
